Test results published in US20240366571A1, “MODULATORS OF SK4 POTASSIUM CHANNEL AND USES THEREOF” (Ramot at Tel-Aviv University Ltd., priority 2022, published 2024).

Columns and labels:
SK4 channel mutants [1] = molecular target: T1, SK4 channel mutants (Homo sapiens, UniProt O15554, L19W); assay: Whole-cell patch-clamp of SK4 channel mutants; type: cell-based; conditions: read-out: inhibition of SK4 mutant L19W current
T1 construct: expressed in transfected cells; host or cells: CHO cells
Description: (§1) Constructs: For CHO cell transfection, the following were cloned: human SK1, rat SK2, human SK3, and rat calmodulin into the pcDNA3 vector, human SK4 into pEGFP-C1 vector, and PIP4,5-kinase into an IRES-dsRed plasmid. The mutations were introduced using the PCR-based QuikChange™ site-directed mutagenesis (Stratagene®) and were verified by full sequencing of the entire plasmid vector.
(§2) Whole-cell patch-clamp recording: Voltage-clamp recordings were performed using the whole-cell configuration of the patch-clamp technique. Signals were amplified using an […] patch-clamp amplifier (Molecular Devices), sampled at 5 kHz and filtered at 2.4 kHz via a four pole Bessel low pass filter. Data were acquired using pClamp™ 10.5 software in conjunction with an Axon™ DigiData® 1440A interface (Molecular Devices). The patch pipettes were pulled from borosilicate glass (Harvard Apparatus) with a resistance of 3-5 megaohms (MΩ). The intracellular pipette solution contained 130 mM KCl, 5 mM EGTA, 10 mM HEPES, pH 7.3 (adjusted with KOH), and CaCl2 calculated for a final concentration of 1 μM free-Ca^2+, by MAXCHELATOR (WEBMAXC STANDARD) software, with sucrose added to adjust osmolarity to 290 mosM. The external solution (310 mosM) contained 140 mM NaCl, 4 mM KCl, 1.8 mM CaCl2, 1.2 mM MgCl2, 11 mM glucose, and 5.5 mM HEPES adjusted with NaOH to pH 7.3. CHO cells were held at −90 millivolt (mV) and SK4 K^+ currents were activated using a voltage ramp protocol from −100 mV to +60 mV for 150 milliseconds. Electrophysiological data analysis was performed using the Clampfit program (pClamp™ 10.5; Molecular Devices).
(§3) To examine ex-vivo the interactions between BA6b9 and the simulated residues seen in FIG. 5B, residues that are in atomic proximity and are expected to interact with BA6b9 were mutated. Such mutated residues were, for example, R191 and H192 of linker S4-S5, M72 and M76 of the CaM linker as well as L19, E22, Y179, S181, A184, Q187 and R189, which are more distant from BA6b9.

SK4 channel mutants [2] = assay: Whole-cell patch-clamp of SK4 channel mutants; type: cell-based, human; conditions: 20 μM
Description: as §1, §2, §3

WT SK4 channels = molecular target: T2, WT SK4 channels (Homo sapiens, UniProt O15554); assay: Inside-out macro-patch recording of WT SK4 channels in transfected CHO cells; type: cell-based
T2 construct: expressed in transfected cells; host or cells: CHO cells
Description: Inside-out macro-patch recording: To measure the Ca^2+ concentration dependence for SK4 channel activation, CHO cells were co-transfected with plasmids encoding WT SK4 (1 μg) and WT CaM (1 μg) using the Lipofectamine reagent at a ratio of 1:2. The cells were transfected 48 hours prior to recordings. The patch pipettes were pulled and fire-polished with a MF-900 micro-forge (Narashige) to reach an internal diameter of […]. The resistance of the patch electrodes ranged from 2-3 MΩ. The pipette solution contained 135 mM KCl, 1 mM MgSO4, 0.91 mM CaCl2, and 10 mM HEPES at pH 7.3. The bath solution contained 135 mM KCl, 5 mM EGTA, and 10 mM HEPES at pH 7.3. EGTA was used to titer the different Ca^2+ concentration solutions, calculated using the software by C. Patton of Stanford University (http://maxchelator(dot)stanford(dot)edu/). Currents were recorded by 10 repetitive 1 second duration voltage ramps from −100 mV to +100 mV from a holding potential of 0 mV. The current amplitudes in response to increasing Ca^2+ concentrations were normalized to those obtained at a saturating Ca^2+ concentration (3 μM). Furthermore, to determine the Ca^2+ concentration dependence for activation in the presence of a tested compound, such as the exemplary compound BA6b9 (10 μM), the current amplitudes were normalized to those obtained at large maximal Ca^2+ concentration of 10 μM. For PIP2-dependent activation, PIP2 affinity to the SK4 channel was also examined in the inside-out configuration. The dose-response curve for PIP2 was measured with increasing concentrations of diC8-PIP2 in the presence of 1 μM Ca^2+. The diC8-PIP2 effect on the channel current was measured after complete depletion of the native PIP2 using sonicated poly-L-lysine (PLL) 50 μg/ml and a subsequent 2-minute washout. […] Apparent EC50 values for Ca^2+ or diC8-PIP2 were determined by fitting the data points to a standard dose-response curve Y=100/(1+10^(log EC(50)−X)*HillSlope).
The calcium dependence of the human SK4 K^+ channel in transfected CHO cells was characterized using inside-out macro-patches. The expressed currents were recorded in response to voltage ramps (−100 millivolt (mV) to +100 mV for 1 seconds) and by increasing the free-Ca^2+ concentrations applied to the internal face of the membrane. […]
To examine whether PIP2 is involved in the modulation of the SK4 channel, channel trafficking to the plasma membrane was increased by co-transfecting CHO cells with plasmid DNAs encoding for the channel and for wild type (WT) CaM. The resulting currents were recorded from inside-out macro-patches, where the intracellular solution contained a saturating concentration of 1 μM free-Ca^2+, as shown in FIG. 1B (see, black plot).

rat SK2 = molecular target: T3, rat SK2 (Rattus norvegicus, UniProt P70604); assay: Whole-cell patch-clamp of SK2 currents in CHO cells; type: cell-based; conditions: 20 μM
T3 construct: expressed in transfected cells; host or cells: CHO cells
Description: as §1
Cell Culture and Transfection: Chinese hamster ovary (CHO) cells were grown in Dulbecco's modified Eagle's medium supplemented with 2 millimolar (mM) glutamine, 10% fetal calf serum, and antibiotics. In brief, 40,000 cells seeded on poly-L-lysine-coated glass coverslips (13 millimeter (mm) in diameter) in a 24-multiwell plate were transfected with 0.5 microgram (μg) pEGFP-SK4/0.5 μg mutant SK4, 1.2 μg dsRed-PIP4,5-kinase or with 1 μg SK1/SK2/SK3 together with pIRES-CD8 (0.3 μg) as a marker for transfection. […]
Whole-cell patch-clamp recording: Voltage-clamp recordings were performed using the whole-cell configuration of the patch-clamp technique. […] The intracellular pipette solution contained 130 mM KCl, 5 mM EGTA, 10 mM HEPES, pH 7.3 (adjusted with KOH), and CaCl2 calculated for a final concentration of 1 μM free-Ca^2+, by MAXCHELATOR (WEBMAXC STANDARD) software, with sucrose added to adjust osmolarity to 290 mosM. […]

CCCCCCCn1c(=O)oc2ccccc21 [BA6b9, 3-heptylbenzo[d]oxazol-2(3H)-one]
inhibition at 20 µM (SK4 channel mutants [1]): 46% | sensitivity of mutants R352Q, R191A, H192A to inhibition compared to WT SK4 (SK4 channel mutants [2]): significantly less sensitive | lowering of the sensitivity of SK4 channels to Ca2+ (WT SK4 channels; 10 μM compound): about 7 fold | inhibition at 10 µM (WT SK4 channels; CHO, 10 μM, 1 μM free-Ca2+, read-out: inhibition of SK4 currents in inside-out macro-patches): 66% | SK2 activity in comparison with control (rat SK2): 134% | SK2 drug-to-control current ratio (rat SK2): 1.34
